The text below walks through data of patent publication US5506216A, “Cyclodextrin-biocide complex” (Boehringer Mannheim GmbH, priority 1993, dated 1996).

Read-outs that look alike come from different tables or passages of the source.

Assay in all cases: MIC of included and free biocides on agar
Holding throughout (assay type): cell-based
Common to all, as to conditions: for MIC: read-out: MIC of included and free biocides

Assay [1] concerns Pseudomonas fluorescens (gram -). The protocol:
(§1) The spectrum of activity of the individual biocide inclusion complexes was determined on bacteria (gram-positive and gram-negative strains), yeasts and fungi (see Table 1). The values are stated as MIC values (=minimum inhibitory concentration) in mg/ml.
(§2) The determination of the growth of the microorganisms was carried out on M121 medium (Sabouraud, 2% maltose nutrient agar (Merck)) for yeasts and fungi and on M130 medium (standard I nutrient agar (Merck)) for bacteria after 72 hours at 28° C. The amount of active substance in the CD inclusion compounds is less than 10%.

Assay [2] deals with Escherichia coli (gram -). As to the method: as §1, §2
A further assay deals with Candida albicans (yeast). As to the method: as §1, §2
The subject of assay [3] is Aspergillus oryzae (fungus). The protocol:
as §1, §2

Assay [4] deals with Bacillus subtilis (gram +). The protocol: as §1, §2
Assay [5] has as its system Staphylococcus aureus (gram +). The protocol: as §1, §2
The mark [6] stands for this setting: M130 medium, 72 hours at 28° C., active substance in complexes <10%.
Where [7] appears, read: M121 medium, 72 hours at 28° C., active substance in complexes <10%.

On to 1,2-benzisothiazolin-3-thion [Proxel], for which the “MIC of included and free biocides” value in assay [1] (setting [6]) was less than 40 µg/mL; in assay [2] (setting [6]), less than 40 µg/mL; in the assay with Candida albicans (yeast) (setting [7]), 40 µg/mL; in assay [3] (setting [7]), 75 µg/mL; in assay [4] (setting [6]), less than 40 µg/mL; in assay [5] (setting [6]), less than 40 µg/mL.
For `CNC(=O)c1ccccc1SSc1ccccc1C(=O)NC` [Densil P, dithio-2,2'-bis(benzmethylamide)], the MIC in assay [1] (setting [6]) was 300 µg/mL; in assay [2] (setting [6]) it was 75 µg/mL; in the assay on Candida albicans (yeast) (setting [7]) it was 600 µg/mL; in assay [3] (setting [7]), less than 40 µg/mL; in assay [4] (setting [6]), less than 40 µg/mL; in assay [5] (setting [6]), less than 40 µg/mL.
Consider `N#CSCSC#N` [methylenebisthiocyanate], for which the MIC in assay [1] (72 h) is less than 40 µg/mL; in assay [2] (72 h) it was less than 40 µg/mL; with Candida albicans (yeast) (72 h), 20 µg/mL; in assay [3] (72 h), 20 µg/mL; in assay [4] (72 h), 75 µg/mL; in assay [5] (72 h) it was 17.5 µg/mL.
As to `Oc1ccccc1-c1ccccc1` [o-phenylphenol], the MIC in assay [1] (72 h) stood at 1250 µg/mL; in assay [2] (72 h) it was 1250 µg/mL; with Candida albicans (yeast) (72 h) it was 600 µg/mL; in assay [3] (72 h) it was 300 µg/mL; in assay [4] (72 h) it was 1250 µg/mL; in assay [5] (72 h), 1250 µg/mL.
